Results reported in PubChem BioAssay AID1963974 (Molecular Pharmacology Branch, DTP, NCI, 2024).

System: 648629-189-R-J1-PDC spheroids with HUVEC/MSC, viability
Assay: Anticancer human tumor 648629-189-R-J1-PDC patient-derived bladder carcinoma cell line growth inhibition [PI3K]
Conditions: for viability, T/C: stronger effect = lower value
In short: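 Viability of mixed-cell spheroids was determined after exposure to pairwise combinations, one partner being inavolisib, alpelisib, duvelisib or copanlisib. Highest tested concentration matched clinical Cmax where known and 10 microM where not, descending in half-log steps.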

[1] = curve of first compound, second compound 0.0316 µM
[2] = curve of first compound, second compound 0.1 µM
[3] = curve of first compound, second compound 0.316 µM
[4] = curve of first compound, second compound 1 µM
[5] = curve of first compound, second compound 3.16 µM
[6] = curve of first compound, second compound 10 µM
[7] = second compound 0.0316 µM, first compound 0.0316 µM
[8] = second compound 0.0316 µM, first compound 0.1 µM
[9] = second compound 0.0316 µM, first compound 0.316 µM
[10] = second compound 0.0316 µM, first compound 1 µM
[11] = second compound 0.0316 µM, first compound 3.16 µM
[12] = second compound 0.0316 µM, first compound 10 µM
[13] = second compound 0.1 µM, first compound 0.0316 µM
[14] = second compound 0.1 µM, first compound 0.1 µM
[15] = second compound 0.1 µM, first compound 0.316 µM
[16] = second compound 0.1 µM, first compound 1 µM
[17] = second compound 0.1 µM, first compound 3.16 µM
[18] = second compound 0.1 µM, first compound 10 µM
[19] = second compound 0.316 µM, first compound 0.0316 µM
[20] = second compound 0.316 µM, first compound 0.1 µM
[21] = second compound 0.316 µM, first compound 0.316 µM
[22] = second compound 0.316 µM, first compound 1 µM
[23] = second compound 0.316 µM, first compound 3.16 µM
[24] = second compound 0.316 µM, first compound 10 µM
[25] = second compound 1 µM, first compound 0.0316 µM
[26] = second compound 1 µM, first compound 0.1 µM
[27] = second compound 1 µM, first compound 0.316 µM
[28] = second compound 1 µM, first compound 1 µM
[29] = second compound 1 µM, first compound 3.16 µM
[30] = second compound 1 µM, first compound 10 µM
[31] = second compound 3.16 µM, first compound 0.0316 µM
[32] = second compound 3.16 µM, first compound 0.1 µM
[33] = second compound 3.16 µM, first compound 0.316 µM
[34] = second compound 3.16 µM, first compound 1 µM
[35] = second compound 3.16 µM, first compound 3.16 µM
[36] = second compound 3.16 µM, first compound 10 µM
[37] = second compound 10 µM, first compound 0.0316 µM
[38] = second compound 10 µM, first compound 0.1 µM
[39] = second compound 10 µM, first compound 0.316 µM
[40] = second compound 10 µM, first compound 1 µM
[41] = second compound 10 µM, first compound 3.16 µM
[42] = second compound 10 µM, first compound 10 µM
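Also: spheroids exposed to agents for seven days before reading.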
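For viability, T/C in this document: percent of vehicle control luminescence where 100% = DMSO treated spheroids.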

`CCCS(=O)(=O)Nc1ccc(F)c(C(=O)c2c[nH]c3ncc(-c4ccc(Cl)cc4)cc23)c1F` + Cc1nc(NC(=O)N2CCCC2C(N)=O)sc1-c1ccnc(C(C)(C)C(F)(F)F)c1 gave an IC50 [1] of 5.13 µM, an IC50 [2] of 5.06 µM and an IC50 [3] of 4.81 µM. The IC50 [4] was 4.31 µM, the IC50 [5] was 3.69 µM and the IC50 [6] was under 0.0316 µM. For the same molecule, the viability, T/C [7] was 122%, the viability, T/C [8] was 104% and the viability, T/C [9] was 123%. It also gave a viability, T/C [10] of 110%, a viability, T/C [11] of 86.2% and a viability, T/C [12] of 0.2%. It also gave a viability, T/C [13] of 115%, a viability, T/C [14] of 102% and a viability, T/C [15] of 114%. The viability, T/C [16] was 107%, the viability, T/C [17] was 84% and the viability, T/C [18] was 0.34%. For the same molecule, the viability, T/C [19] was 93.3%, the viability, T/C [20] was 97.4% and the viability, T/C [21] was 96.9%. For the same molecule, the viability, T/C [22] was 90.7%, the viability, T/C [23] was 79% and the viability, T/C [24] was 0.27%. For the same molecule, the viability, T/C [25] was 81.1%, the viability, T/C [26] was 96.7% and the viability, T/C [27] was 103%. For the same molecule, the viability, T/C [28] was 84.7%, the viability, T/C [29] was 68.7% and the viability, T/C [30] was 0.67%. It also gave a viability, T/C [31] of 63.1%, a viability, T/C [32] of 65.7% and a viability, T/C [33] of 62%. For the same molecule, the viability, T/C [34] was 53.1%, the viability, T/C [35] was 58% and the viability, T/C [36] was 0.64%. For the same molecule, the viability, T/C [37] was 43.7%, the viability, T/C [38] was 44.1% and the viability, T/C [39] was 33.7%. It also gave a viability, T/C [40] of 37%, a viability, T/C [41] of 27.3% and a viability, T/C [42] of 0.85%.

`C#Cc1c(F)ccc2cc(O)cc(-c3ncc4c(N5CC6CCC(C5)N6)nc(OCC56CCCN5CC(F)C6)nc4c3F)c12` (stereo not drawn) + Cc1nc(NC(=O)N2CCCC2C(N)=O)sc1-c1ccnc(C(C)(C)C(F)(F)F)c1 showed an IC50 [1] of over 10 µM, an IC50 [2] of over 10 µM and an IC50 [3] of over 10 µM. It also gave an IC50 [4] of over 10 µM, an IC50 [5] of over 10 µM and an IC50 [6] of under 0.0316 µM. The viability, T/C [7] was 100%, the viability, T/C [8] was 103% and the viability, T/C [9] was 103%. The viability, T/C [10] was 99.6%, the viability, T/C [11] was 89.3% and the viability, T/C [12] was 91.3%. The viability, T/C [13] was 101%, the viability, T/C [14] was 96.8% and the viability, T/C [15] was 97.5%. The viability, T/C [16] was 87.4%, the viability, T/C [17] was 95.1% and the viability, T/C [18] was 91.4%. For the same molecule, the viability, T/C [19] was 90.7%, the viability, T/C [20] was 88.1% and the viability, T/C [21] was 87%. For the same molecule, the viability, T/C [22] was 86.1%, the viability, T/C [23] was 80.4% and the viability, T/C [24] was 79.5%. It also gave a viability, T/C [25] of 77.9%, a viability, T/C [26] of 77.4% and a viability, T/C [27] of 77%. It also gave a viability, T/C [28] of 72.4%, a viability, T/C [29] of 68.9% and a viability, T/C [30] of 70.5%. For the same molecule, the viability, T/C [31] was 52.7%, the viability, T/C [32] was 56.1% and the viability, T/C [33] was 55%. The viability, T/C [34] was 52.7%, the viability, T/C [35] was 50.6% and the viability, T/C [36] was 54.9%. It also gave a viability, T/C [37] of 36.3%, a viability, T/C [38] of 34.2% and a viability, T/C [39] of 34.5%. It also gave a viability, T/C [40] of 34.5%, a viability, T/C [41] of 31.2% and a viability, T/C [42] of 5.29%.

With `CC(Nc1ccc2c(c1)OCCn1cc(N3C(=O)OCC3C(F)F)nc1-2)C(N)=O` (stereo not drawn) the viability, T/C (compound 0.00316 µM) was 104% [middle of 8 runs], the viability, T/C (compound 0.01 µM) was 99.7% [middle of 8 runs] and the viability, T/C (compound 0.0316 µM) was 106% [middle of 8 runs]. The viability, T/C (compound 0.1 µM) was 95.2% [middle of 8 runs], the viability, T/C (compound 0.316 µM) was 81.1% [middle of 8 runs] and the viability, T/C (compound 1 µM) was 73.8% [middle of 8 runs]. The IC50 (compound alone, run of 04/24/2023) was over 1 µM.

Molecule `Cn1cnc2c(F)c(Nc3ccc(Br)cc3Cl)c(C(=O)NOCCO)cc21` + CC(Nc1ncnc2nc[nH]c12)c1cc2cccc(Cl)c2c(=O)n1-c1ccccc1 has an IC50 [1] of over 3 µM, an IC50 [2] of over 3 µM and an IC50 [3] of over 3 µM. For the same molecule, the IC50 [4] was over 3 µM, the IC50 [5] was over 3 µM and the IC50 [6] was over 3 µM. The viability, T/C (second compound 0.0316 µM, first compound 0.00949 µM) was 101%, the viability, T/C (second compound 0.0316 µM, first compound 0.03 µM) was 86.2% and the viability, T/C (second compound 0.0316 µM, first compound 0.0949 µM) was 84%. It also gave a viability, T/C (second compound 0.0316 µM, first compound 0.3 µM) of 101%, a viability, T/C (second compound 0.0316 µM, first compound 0.949 µM) of 93.6% and a viability, T/C (second compound 0.0316 µM, first compound 3 µM) of 81.6%. It also gave a viability, T/C (second compound 0.1 µM, first compound 0.00949 µM) of 97.1%, a viability, T/C (second compound 0.1 µM, first compound 0.03 µM) of 93.6% and a viability, T/C (second compound 0.1 µM, first compound 0.0949 µM) of 102%. It also gave a viability, T/C (second compound 0.1 µM, first compound 0.3 µM) of 95.5%, a viability, T/C (second compound 0.1 µM, first compound 0.949 µM) of 107% and a viability, T/C (second compound 0.1 µM, first compound 3 µM) of 90.1%. It also gave a viability, T/C (second compound 0.316 µM, first compound 0.00949 µM) of 95.8%, a viability, T/C (second compound 0.316 µM, first compound 0.03 µM) of 101% and a viability, T/C (second compound 0.316 µM, first compound 0.0949 µM) of 94%. The viability, T/C (second compound 0.316 µM, first compound 0.3 µM) was 114%, the viability, T/C (second compound 0.316 µM, first compound 0.949 µM) was 105% and the viability, T/C (second compound 0.316 µM, first compound 3 µM) was 79.2%. It also gave a viability, T/C (second compound 1 µM, first compound 0.00949 µM) of 105%, a viability, T/C (second compound 1 µM, first compound 0.03 µM) of 100% and a viability, T/C (second compound 1 µM, first compound 0.0949 µM) of 94.9%. The viability, T/C (second compound 1 µM, first compound 0.3 µM) was 98.9%, the viability, T/C (second compound 1 µM, first compound 0.949 µM) was 88.3% and the viability, T/C (second compound 1 µM, first compound 3 µM) was 88.2%. The viability, T/C (second compound 3.16 µM, first compound 0.00949 µM) was 103%, the viability, T/C (second compound 3.16 µM, first compound 0.03 µM) was 101% and the viability, T/C (second compound 3.16 µM, first compound 0.0949 µM) was 94.2%. It also gave a viability, T/C (second compound 3.16 µM, first compound 0.3 µM) of 108%, a viability, T/C (second compound 3.16 µM, first compound 0.949 µM) of 89.2% and a viability, T/C (second compound 3.16 µM, first compound 3 µM) of 84.4%. It also gave a viability, T/C (second compound 10 µM, first compound 0.00949 µM) of 93.2%, a viability, T/C (second compound 10 µM, first compound 0.03 µM) of 80.3% and a viability, T/C (second compound 10 µM, first compound 0.0949 µM) of 92.1%. The viability, T/C (second compound 10 µM, first compound 0.3 µM) was 92.8%, the viability, T/C (second compound 10 µM, first compound 0.949 µM) was 79% and the viability, T/C (second compound 10 µM, first compound 3 µM) was 68.6%.
